Data as given in patent publication US8551984B2, “Aminopyrimidines as SYK inhibitors” (Merck Sharp & Dohme Corp., priority 2009, dated 2013).

Target: recombinant human SYK (GST-hSYK fusion protein) (Homo sapiens, UniProt P43405)
Assay: biochemical
Details: rhSYK Activity, Table 54D
Source text: Homogeneous Time-Resolved Fluorescence (HTRF) Assay for the Recombinant Human SYK Enzyme:

SMILES	IC50 [µM]
Cc1cc(Nc2nccc(C(F)(F)F)n2)cc(-c2cnc(C3(O)CCCN(C(=O)CC4CCOCC4)CC3)s2)c1 (stereo not shown) [Example 54D-96]	< 0.1
Cc1cc(Nc2nccc(C(F)(F)F)n2)cc(-c2cnc(C3(O)CCCN(C(=O)C(O)C(F)(F)F)CC3)s2)c1 (stereo not shown) [Example 54D-97]	< 0.1
Cc1cc(Nc2nccc(C(F)(F)F)n2)cc(-c2cnc(C3(O)CCCN(C(=O)CCC(=O)N(C)C)CC3)s2)c1 (stereo not shown) [Example 54D-98]	< 0.1
C#Cc1ccc(C(=O)N2CCCC(O)(c3ncc(-c4cc(C)cc(Nc5nccc(C(F)(F)F)n5)c4)s3)CC2)cc1 (stereo not shown) [Example 54D-99]	< 0.1
CCC(CO)(CO)C(=O)N1CCCC(O)(c2ncc(-c3cc(C)cc(Nc4nccc(C(F)(F)F)n4)c3)s2)CC1 (stereo not shown) [Example 54D-102]	< 0.1
Cc1cc(Nc2nccc(C(F)(F)F)n2)cc(-c2cnc(C3(O)CCCN(C(=O)c4cc(O)ccc4F)CC3)s2)c1 (stereo not shown) [Example 54D-104]	< 0.1
Cc1cc(Nc2nccc(C(F)(F)F)n2)cc(-c2cnc(C3(O)CCCN(C(=O)c4ccnc(Cl)n4)CC3)s2)c1 (stereo not shown) [Example 54D-105]	< 0.1
CC(=O)Oc1ccc(C(=O)N2CCCC(O)(c3ncc(-c4cc(C)cc(Nc5nccc(C(F)(F)F)n5)c4)s3)CC2)cc1 (stereo not shown) [Example 54D-106]	< 0.1
COC(=O)C1CCC(C(=O)N2CCCC(O)(c3ncc(-c4cc(C)cc(Nc5nccc(C(F)(F)F)n5)c4)s3)CC2)CC1 (stereo not shown) [Example 54D-111]	< 0.1
COC(=O)C(O)(CC(=O)N1CCCC(O)(c2ncc(-c3cc(C)cc(Nc4nccc(C(F)(F)F)n4)c3)s2)CC1)C(F)(F)F (stereo not shown) [Example 54D-112]	< 0.1
Cc1cc(Nc2nccc(C(F)(F)F)n2)cc(-c2cnc(C3(O)CCCN(C(=O)CO)CC3)s2)c1 (stereo not shown) [Example 54D-121]	< 0.1

The remaining lines, values ahead:

IC50 [µM]	SMILES
< 0.1	Cc1cc(Nc2nccc(C(F)(F)F)n2)cc(-c2cnc(C3(O)CCCN(S(=O)(=O)NC(=O)OC(C)(C)C)CC3)s2)c1 (stereo not shown) [Example 54D-114]
< 0.1	Cc1cc(Nc2nccc(C(F)(F)F)n2)cc(-c2cnc(C3(O)CCCN(S(N)(=O)=O)CC3)s2)c1 (stereo not shown) [Example 54D-115]
< 0.1	Cc1cc(Nc2nccc(C(F)(F)F)n2)cc(-c2cnc(C3(O)CCCN(S(=O)(=O)O)CC3)s2)c1 (stereo not shown) [Example 54D-118]

Same assay, conditions: rhSYK Activity, Table 54E

SMILES	IC50 [µM]
Cc1cc(Nc2nccc(C(F)(F)F)n2)cc(-c2cnc([C@]3(O)CC[C@@H](NC(=O)[C@@H](C)O)CC3)s2)c1 [Example 54E-1]	< 0.1
Cc1cc(Nc2nccc(C(F)(F)F)n2)cc(-c2cnc([C@]3(O)CC[C@@H](NC(=O)c4ncc[nH]4)CC3)s2)c1 [Example 54E-4]	< 0.1
Cc1cc(Nc2nccc(C(F)(F)F)n2)cc(-c2cnc([C@]3(O)CC[C@@H](NC(=O)c4c[nH]cn4)CC3)s2)c1 [Example 54E-5]	< 0.1
Cc1cc(Nc2nccc(C(F)(F)F)n2)cc(-c2cnc([C@]3(O)CC[C@@H](NC(=O)c4c[nH]nn4)CC3)s2)c1 [Example 54E-6]	< 0.1
Cc1cc(Nc2nccc(C(F)(F)F)n2)cc(-c2cnc(C3(O)CCC(NC(=O)C4CC(O)C4)CC3)s2)c1 (stereo not shown) [Example 54E-7]	< 0.1
Cc1cc(Nc2nccc(C(F)(F)F)n2)cc(-c2cnc(C3(O)CCC(NC(=O)CCC(N)=O)CC3)s2)c1 (stereo not shown) [Example 54E-8]	< 0.1
Cc1cc(Nc2nccc(C(F)(F)F)n2)cc(-c2cnc([C@]3(O)CC[C@@H](NC(=O)c4ccccc4)CC3)s2)c1 [Example 54E-9]	< 0.1
Cc1cc(Nc2nccc(C(F)(F)F)n2)cc(-c2cnc([C@]3(O)CC[C@@H](NC(=O)Cc4c[nH]cn4)CC3)s2)c1 [Example 54E-10]	< 0.1
Cc1cc(Nc2nccc(C(F)(F)F)n2)cc(-c2cnc(C3(O)CCC(NC(=O)Cn4cncn4)CC3)s2)c1 (stereo not shown) [Example 54E-11]	< 0.1
Cc1cc(Nc2nccc(C(F)(F)F)n2)cc(-c2cnc([C@]3(O)CC[C@@H](NC(=O)Cn4ccnn4)CC3)s2)c1 [Example 54E-12]	< 0.1
Cc1cc(Nc2nccc(C(F)(F)F)n2)cc(-c2cnc(C3(O)CCC(NC(=O)Cn4cnnn4)CC3)s2)c1 (stereo not shown) [Example 54E-13]	< 0.1
Cc1cc(Nc2nccc(C(F)(F)F)n2)cc(-c2cnc([C@]3(O)CC[C@@H](NC(=O)C4CCCCC4)CC3)s2)c1 [Example 54E-14]	< 0.1
Cc1cc(Nc2nccc(C(F)(F)F)n2)cc(-c2cnc(C3(O)CCC(NC(=O)C4CNC(=O)N4)CC3)s2)c1 (stereo not shown) [Example 54E-15]	< 0.1
Cc1cc(Nc2nccc(C(F)(F)F)n2)cc(-c2cnc(C3(O)CCC(NC(=O)C4CCCCO4)CC3)s2)c1 (stereo not shown) [Example 54E-16]	< 0.1
Cc1cc(Nc2nccc(C(F)(F)F)n2)cc(-c2cnc(C3(O)CCC(NC(=O)CC4CCCO4)CC3)s2)c1 (stereo not shown) [Example 54E-17]	< 0.1
Cc1cc(Nc2nccc(C(F)(F)F)n2)cc(-c2cnc(C3(O)CCC(NC(=O)C(C)(CO)CO)CC3)s2)c1 (stereo not shown) [Example 54E-20]	< 0.1

SMILES	IC50 [µM]
Cc1cc(Nc2nccc(C(F)(F)F)n2)cc(-c2cnc([C@]3(O)CC[C@@H](NC(=O)Cc4ccccn4)CC3)s2)c1 [Example 54E-21]	< 0.1
Cc1cc(Nc2nccc(C(F)(F)F)n2)cc(-c2cnc([C@]3(O)CC[C@@H](NC(=O)Cc4ncccn4)CC3)s2)c1 [Example 54E-23]	< 0.1
Cc1cc(Nc2nccc(C(F)(F)F)n2)cc(-c2cnc([C@]3(O)CC[C@@H](NC(=O)c4ccc(O)cn4)CC3)s2)c1 [Example 54E-24]	< 0.1
Cc1cc(Nc2nccc(C(F)(F)F)n2)cc(-c2cnc(C3(O)CCC(NC(=O)c4cccc(O)n4)CC3)s2)c1 (stereo not shown) [Example 54E-25]	< 0.1
Cc1cc(Nc2nccc(C(F)(F)F)n2)cc(-c2cnc([C@]3(O)CC[C@@H](NC(=O)CCc4cn[nH]c4)CC3)s2)c1 [Example 54E-26]	< 0.1
Cc1cc(Nc2nccc(C(F)(F)F)n2)cc(-c2cnc(C3(O)CCC(NC(=O)CCn4cncn4)CC3)s2)c1 (stereo not shown) [Example 54E-27]	< 0.1
Cc1cc(Nc2nccc(C(F)(F)F)n2)cc(-c2cnc(C3(O)CCC(NC(=O)C4CCCC(=O)N4)CC3)s2)c1 (stereo not shown) [Example 54E-28]	< 0.1
Cc1cc(Nc2nccc(C(F)(F)F)n2)cc(-c2cnc(C3(O)CCC(NC(=O)CC4CCOCC4)CC3)s2)c1 (stereo not shown) [Example 54E-29]	< 0.1
Cc1cc(Nc2nccc(C(F)(F)F)n2)cc(-c2cnc(C3(O)CCC(NC(=O)C(O)C(F)(F)F)CC3)s2)c1 (stereo not shown) [Example 54E-30]	< 0.1
Cc1cc(Nc2nccc(C(F)(F)F)n2)cc(-c2cnc(C3(O)CCC(NC(=O)CCC(=O)N(C)C)CC3)s2)c1 (stereo not shown) [Example 54E-31]	< 0.1
C#Cc1ccc(C(=O)NC2CCC(O)(c3ncc(-c4cc(C)cc(Nc5nccc(C(F)(F)F)n5)c4)s3)CC2)cc1 (stereo not shown) [Example 54E-32]	< 0.1
Cc1cc(Nc2nccc(C(F)(F)F)n2)cc(-c2cnc([C@]3(O)CC[C@@H](NC(=O)c4ccc(C#N)cc4)CC3)s2)c1 [Example 54E-33]	< 0.1
Cc1cc(Nc2nccc(C(F)(F)F)n2)cc(-c2cnc(C3(O)CCC(NC(=O)c4cc(O)ccc4F)CC3)s2)c1 (stereo not shown) [Example 54E-35]	< 0.1
Cc1cc(Nc2nccc(C(F)(F)F)n2)cc(-c2cnc([C@]3(O)CC[C@@H](NC(=O)c4ccc(O)c(F)c4)CC3)s2)c1 [Example 54E-36]	< 0.1
Cc1cc(Nc2nccc(C(F)(F)F)n2)cc(-c2cnc(C3(O)CCC(NC(=O)CC(N)C(F)(F)F)CC3)s2)c1 (stereo not shown) [Example 54E-37]	< 0.1
COC(=O)C1CCC(C(=O)NC2CCC(O)(c3ncc(-c4cc(C)cc(Nc5nccc(C(F)(F)F)n5)c4)s3)CC2)CC1 (stereo not shown) [Example 54E-38]	< 0.1

Next, values leading:

IC50 [µM]	SMILES
< 0.1	Cc1cc(Nc2nccc(C(F)(F)F)n2)cc(-c2cnc(C3(O)CCC(NC(=O)CC(N)=O)CC3)s2)c1 (stereo not shown) [Example 54E-3]
< 0.1	Cc1cc(Nc2nccc(C(F)(F)F)n2)cc(-c2cnc([C@]3(O)CC[C@@H](NC(=O)CS(C)(=O)=O)CC3)s2)c1 [Example 54E-22]

Same assay, conditions: rhSYK Activity, Table 56

IC50 [µM]	SMILES
< 0.1	Cc1cc(Nc2nccc(C)n2)cc(-c2cnc(C3(O)CCC3)s2)c1 [Example 56-1]
< 0.1	CCc1ccnc(Nc2cc(C)cc(-c3cnc(C4(O)CCC4)s3)c2)n1 [Example 56-2]
< 0.1	Cc1cc(Nc2nccc(C3CC3)n2)cc(-c2cnc(C3(O)CCC3)s2)c1 [Example 56-3]

Same assay, conditions: rhSYK Activity, Table 61B

IC50 [µM]	SMILES
< 0.1	Cc1cc(Nc2nccc(C(F)(F)F)n2)cc(-c2cnc(C3(N)CCC3)s2)c1 [Example 61B-1, N-{3-[2-(1-aminocyclobutyl)-1,3-thiazol-5-yl]-5-methylphenyl}-4-(trifluoromethyl)pyrimidin-2-amine]
< 0.1	Cc1cc(Nc2nccc(C(F)(F)F)n2)cc(-c2cnc(C3(NS(=O)(=O)CC(F)(F)F)CCC3)s2)c1 [Example 61B-2]
< 0.1	Cc1cc(Nc2nccc(C(F)(F)F)n2)cc(-c2cnc(C3(NS(=O)(=O)CF)CCC3)s2)c1 [Example 61B-3]
< 0.1	Cc1cc(Nc2nccc(C(F)(F)F)n2)cc(-c2cnc(C3(NS(C)(=O)=O)CCC3)s2)c1 [Example 61B-4]
< 0.1	Cc1cc(Nc2nccc(C(F)(F)F)n2)cc(-c2cnc(C3(NS(=O)(=O)C(F)(F)F)CCC3)s2)c1 [Example 61B-5]
< 0.1	Cc1cc(Nc2nccc(C(F)(F)F)n2)cc(-c2cnc(C3(NS(=O)(=O)CC(F)(F)F)COC3)s2)c1 [Example 61B-7]
< 0.1	Cc1cc(Nc2nccc(C(F)(F)F)n2)cc(-c2cnc(C3(N[S+]([O-])C(F)F)COC3)s2)c1 (stereo not shown) [Example 61B-8]
< 0.1	CS(=O)(=O)NC1(c2ncc(-c3cccc(Nc4nccc(C(F)(F)F)n4)c3)s2)COC1 [Example 61B-9]
< 0.1	COc1nc(Nc2cc(C)cc(-c3cnc(C4(N)COC4)s3)c2)ncc1Cl [Example 61B-10]

Same assay, conditions: rhSYK Activity, Table 62

IC50 [µM]	SMILES
< 0.1	Cc1cc(Nc2ncccn2)cc(-c2cnc(C3(N)CCC3)s2)c1 [Example 62-1]
< 0.1	COc1ccnc(Nc2cc(C)cc(-c3cnc(C4(N)CCC4)s3)c2)n1 [Example 62-2]

Same assay, conditions: rhSYK Activity, Table 63

IC50 [µM]	SMILES
< 0.1	Cc1cc(Nc2ncc(F)c(C)n2)cc(-c2cnc(C3(NS(N)(=O)=O)COC3)s2)c1 [Example 63-1]
< 0.1	COc1nc(Nc2cc(C)cc(-c3cnc(C4(NS(N)(=O)=O)COC4)s3)c2)ncc1Cl [Example 63-2]
